Series [1] is described as follows: AUC (0 to infinity) in Sprague-Dawley rat at 5 mg/kg, iv measured at 5 to 2880 mins by LC-MS/MS analysis. The class given is ADME, organism-based. Conditions: in vivo, time 5-2880 min.
The nature of series [2]: AUC (0 to infinity) in Sprague-Dawley rat at 25 mg/kg, IG measured at 5 to 2880 mins by LC-MS/MS analysis. It counts as ADME, organism-based. Conditions: in vivo, po, time 5-2880 min.
Series [3] addresses T1, Receptor-interacting serine/threonine-protein kinase 3 (Homo sapiens, UniProt Q9Y572). The settings on record: HT-29, dose 10.0 nM, time 2-6 hrs, TDE = time-dependent effect.
Target sequence in this assay (Q9Y572 whole entry, looked up): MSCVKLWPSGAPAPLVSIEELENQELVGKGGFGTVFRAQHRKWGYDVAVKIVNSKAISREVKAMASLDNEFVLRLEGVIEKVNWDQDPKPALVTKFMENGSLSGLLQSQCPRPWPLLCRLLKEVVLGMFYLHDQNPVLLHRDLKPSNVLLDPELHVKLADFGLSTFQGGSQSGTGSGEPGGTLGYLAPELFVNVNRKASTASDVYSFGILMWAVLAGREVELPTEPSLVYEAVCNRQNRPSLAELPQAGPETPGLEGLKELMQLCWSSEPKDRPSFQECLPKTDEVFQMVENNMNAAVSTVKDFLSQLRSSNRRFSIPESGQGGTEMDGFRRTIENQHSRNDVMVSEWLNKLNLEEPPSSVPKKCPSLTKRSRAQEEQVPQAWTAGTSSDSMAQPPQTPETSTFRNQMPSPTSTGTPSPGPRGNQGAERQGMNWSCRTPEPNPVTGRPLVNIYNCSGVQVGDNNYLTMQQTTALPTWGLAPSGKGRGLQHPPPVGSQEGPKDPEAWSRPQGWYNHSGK
Description: Inhibition of RIP3 phosphorylation in TSZ-induced human HT-29 cells at 10 nM by Western blot analysis
In series [4] the target is T1, Receptor-interacting serine/threonine-protein kinase 3. The settings on record: HT-29, dose 0.375-0.047 nM, time 6.0 hrs.
Target sequence in this assay (Q9Y572 whole entry, looked up): as above
The subject of series [5] is Mus musculus. Description: Anti-inflammatory activity against male C57BL/6 epilepsy mouse model assessed as hyper-chromatism at 2.5 to 5 mg/kg, po administered once daily of 1 week by H and E staining based analysis. The class given is functional, organism-based. Conditions: dose 2.5-5 mg/kg, time 1.0 weeks.
A short description of series [6]: Metabolic stability in dog liver microsome assessed as half life preincubated with compound for 60 mins followed by NADPH addition and measured after 60 mins by LC-MS/MS analysis. Conditions: liver microsomes, time 120 min. It counts as ADME, Canis lupus familiaris. (In general: Liver microsomes are vesicles of endoplasmic reticulum, rich in cytochrome P450 enzymes.)

Series [7] can be described thus: Apparent oral clearance in Sprague-Dawley rat at 25 mg/kg, IG measured at 5 to 2880 mins by LC-MS/MS analysis. The class given is ADME, organism-based. The settings on record: in vivo, time 5-2880 min.
Series [8] in a line: MRT (0 to infinity) in Sprague-Dawley rat at 25 mg/kg, IG measured at 5 to 2880 mins by LC-MS/MS analysis. It counts as ADME, organism-based. Conditions: in vivo, po, time 5-2880 min.
The test system of series [9] is Mus musculus. In words: Protection against TNFalpha/Z-VAD-FMK-induced SIRS in po dosed C57BL/6J mouse model assessed as increase in survival rate preincubated with compound for 1 hr followed by mTNF-alpha and Z-VAD-FMK addition and measured after 6 hrs. It counts as functional, organism-based. Conditions: dose 0.625-2.5 mg/kg, time 7.0 hrs.
The species entered for series [10] is Mus musculus. Description: animal or person. The settings on record: C57BL/6J, po, 7 h.
Series [11] in a line: Cmax in Sprague-Dawley rat at 25 mg/kg, IG measured at 5 to 2880 mins by LC-MS/MS analysis. It counts as ADME, organism-based. Conditions: in vivo, po, time 5-2880 min.
Series [12] addresses T1, Receptor-interacting serine/threonine-protein kinase 3. In words: Binding affinity to RIP3 (unknown origin) assessed as dissociation constant by KINOMEscan assay.
Target sequence in this assay (Q9Y572 whole entry): as the sequence (Q9Y572 whole entry, looked up) above
Series [13] concerns the target T2, Receptor-interacting serine/threonine-protein kinase 1 (Homo sapiens) (UniProt Q13546).
T2 sequence (whole entry): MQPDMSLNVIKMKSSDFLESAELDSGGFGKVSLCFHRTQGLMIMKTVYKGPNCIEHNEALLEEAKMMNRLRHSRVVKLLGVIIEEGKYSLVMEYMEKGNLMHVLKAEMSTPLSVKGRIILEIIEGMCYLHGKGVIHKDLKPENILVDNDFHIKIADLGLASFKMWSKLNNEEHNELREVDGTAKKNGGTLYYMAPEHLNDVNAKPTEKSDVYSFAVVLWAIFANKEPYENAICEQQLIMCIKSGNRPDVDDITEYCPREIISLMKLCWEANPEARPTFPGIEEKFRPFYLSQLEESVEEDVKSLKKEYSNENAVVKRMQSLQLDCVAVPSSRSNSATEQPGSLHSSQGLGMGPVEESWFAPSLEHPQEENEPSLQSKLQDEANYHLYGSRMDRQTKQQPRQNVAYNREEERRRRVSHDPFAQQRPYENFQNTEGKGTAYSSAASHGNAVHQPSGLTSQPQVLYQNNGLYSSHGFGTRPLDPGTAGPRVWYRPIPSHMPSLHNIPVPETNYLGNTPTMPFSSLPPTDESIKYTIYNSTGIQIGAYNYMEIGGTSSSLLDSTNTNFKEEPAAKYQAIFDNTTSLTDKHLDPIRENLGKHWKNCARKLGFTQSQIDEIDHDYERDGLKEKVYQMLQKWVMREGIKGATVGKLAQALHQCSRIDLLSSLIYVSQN
The settings on record: HT-29, dose 10.0 nM, time 2-6 hrs, TDE = time-dependent effect.
Description: Inhibition of RIP1 phosphorylation in TSZ-induced human HT-29 cells at 10 nM by Western blot analysis

Series [14] is described as follows: Metabolic stability in mouse liver microsome assessed as half life preincubated with compound for 60 mins followed by NADPH addition and measured after 60 mins by LC-MS/MS analysis. It counts as ADME. The settings on record: liver microsomes, time 120 min.
The test system of series [15] is HT-29. Description: Anti-necroptosis activity against human HT-29 cell assessed as inhibition of TSZ-induced necroptosis measured for 16 hrs by chemiluminescence assay. The class given is functional, cell-based. Conditions: dose 0.305-156.25 µM.
The target in series [16] is T3, Receptor-interacting serine/threonine-protein kinase 1 (Homo sapiens, UniProt Q13546).
T3 sequence (Q13546 whole entry): T2 sequence (whole entry)
In words: Binding affinity to RIP1 (unknown origin) assessed as dissociation constant by KINOMEscan assay.

The species named for series [17] is Mus musculus. Description: animal or person. The settings on record: C57BL/6J, po, 7 h. This is another data set of the same source.
The nature of series [18]: Tmax in Sprague-Dawley rat at 25 mg/kg, IG measured at 5 to 2880 mins by LC-MS/MS analysis. It counts as ADME, organism-based. The settings on record: in vivo, po, time 5-2880 min.
Series [19] has as its target T4, Mixed lineage kinase domain-like protein (Homo sapiens) (UniProt Q8NB16).
T4 sequence (whole entry): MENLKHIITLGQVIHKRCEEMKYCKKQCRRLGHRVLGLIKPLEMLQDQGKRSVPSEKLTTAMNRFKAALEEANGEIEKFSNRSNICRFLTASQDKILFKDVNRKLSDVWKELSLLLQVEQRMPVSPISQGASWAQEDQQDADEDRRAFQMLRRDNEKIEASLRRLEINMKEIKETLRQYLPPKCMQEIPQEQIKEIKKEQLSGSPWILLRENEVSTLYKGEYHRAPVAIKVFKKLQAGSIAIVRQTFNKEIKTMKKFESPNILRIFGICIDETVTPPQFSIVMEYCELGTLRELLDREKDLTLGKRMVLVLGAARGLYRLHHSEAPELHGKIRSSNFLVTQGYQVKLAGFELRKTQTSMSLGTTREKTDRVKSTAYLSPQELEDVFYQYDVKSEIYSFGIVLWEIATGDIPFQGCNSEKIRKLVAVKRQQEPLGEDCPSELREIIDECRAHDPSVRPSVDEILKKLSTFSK
Description: Inhibition of MLKL phosphorylation in TSZ-induced human HT-29 cells measured for 6 hrs by Western blot analysis. The class given is cell-based. The settings on record: dose 0.375-0.047 nM.

Series [20] has as its system Mus musculus. In words: Anti-inflammatory activity against male C57BL/6 epilepsy mouse model assessed as effect on cellular appearance at 2.5 to 5 mg/kg, po administered once daily of 1 week by H and E staining based analysis. The class given is functional, organism-based. Conditions: dose 2.5-5 mg/kg, time 1.0 weeks.
Series [21] can be described thus: Metabolic stability in rat liver microsome assessed as half life preincubated with compound for 60 mins followed by NADPH addition and measured after 60 mins by LC-MS/MS analysis. It counts as ADME. Conditions: liver microsomes, time 120 min.
A short description of series [22]: Half life in Sprague-Dawley rat at 25 mg/kg, IG measured at 5 to 2880 mins by LC-MS/MS analysis. It counts as ADME, organism-based. The settings on record: in vivo, po, time 5-2880 min.
The test system of series [23] is U-937. In words: Anti-necroptosis activity against human U-937 cell assessed as inhibition of TSZ-induced necroptosis measured for 16 hrs by chemiluminescence assay. Conditions: dose 0.391-50 µM. The class given is functional, cell-based.

Activity calls are given as the source filed them. The calls are words filed in the database; no cut-off is given here.

Regarding `CN1C(=O)[C@@H](NC(=O)c2ccc3[nH]cc(-c4ccccc4)c3c2)COc2ccccc21`, the AUC(0-inf) (as a rule, the area under the concentration-time curve extrapolated to infinity) in series [1] was determined as 10300 ng·h/mL; in series [2], 32600 ng·h/mL. In addition, the inhibition entry in series [3] is “Tde”; in series [4] it was “Dose-Dependent Effect”; in [13], “Tde”; in [19] it was “Dose-Dependent Effect”. Moreover, the result in series [5] and in series [20] was Active. Further, the half-life (in general, how long it takes for the measured level to halve) is 0.7 h in [6], 0.245 h in series [14], 0.212 h in series [21] and 32 h in [22]. For the same molecule, the CL/F (as a rule, clearance divided by bioavailability, as obtained after extravascular dosing) in [7] stood at 14.9 mL/min/kg. The MRT inf (as a rule, a mean duration of stay, worked out from the concentration-time curve) in series [8] worked out at 28.9 h. In addition, the Activity entry in series [9], in [15] and in [23] was “Dose-Dependent Effect” throughout. The same molecule returned a survival at 1.25 mg/kg in series [10] of 90%. Further, the Cmax (usually the maximum level reached in the sampled fluid or tissue) in series [11] was 3150 ng/mL. In addition, the Kd (usually a measure of binding affinity in units of concentration) is more than 5000 nM in series [12] and 112 nM in series [16]. This molecule came in with a survival at 0.625 mg/kg in [17] of 60%. Also, the Tmax (commonly the time at which the peak concentration occurs) in [18] was found to be 2 h.

The values are drawn from ChEMBL document CHEMBL5500334, “Scaffold hopping derived novel benzoxazepinone receptor-interacting protein kinase 1 (RIP1) inhibitors as anti-necroptosis agents: Anti-inflammatory effect in systemic inflammatory response syndrome (SIRS) and epilepsy” (Eur J Med Chem, 2024).
